The record followed here is patent US12599597B2, “Substituted N-benzhydrylacetamide inhibitors of jumanji domain histone demethylases for the treatment of cancer” (University of Kentucky Research Foundation, priority 2020, dated 2026).

In one assay the test system is Wnt signaling. Description: TOPFlash (Wnt) reporter assay in stable HEK293T cell line. The class given is cell-based. Conditions: for Percent inhibition at 1 μM: Table 3, Wnt reporter assay at 1 μM. An excerpt:
Wnt signaling is a key target for multiple human cancers, including but not limited to colon cancer, liver cancer, and lung cancer. To identify novel Wnt regulators by high throughput screening, a stable HEK293T cell line containing the TOPFlash reporter was established. Since β-catenin is often activated by mutations in the Wnt pathway, it is important to inhibit Wnt signaling downstream of β-catenin activity. Therefore, the screen was specifically designed to identify Wnt inhibitors that target events downstream of β-catenin. The Wnt signaling was activated by treating cells with lithium chloride to inhibit GSK3 and to stabilize β-catenin, mimicking the constitutively active Wnt signaling in cancer cells. Through this screen, a family of novel Wnt inhibitors that inhibited Wnt signaling at a 0.5-10 μM concentrations (Table 1) was identified.
After 6 h, the cells were treated with 25 mM LiCl to activate Wnt signaling. The inhibition ratio of each compound was determined (Table 1).
For the SAR studies, 58B1 (VMS-7-133) was re-synthesized. Additionally, SD70, a commercial KDM4 inhibitor, was both purchased and re-synthesized (VMS-7-175). […] VMS-7-195 is a biotinylated analog of 58B1. […] Specific KDM inhibitors may be used to target specific KDMs, such as KDM3A, which is highly expressed in many human cancers.
Identification of a CBA-1 as a novel Wnt inhibitor. The present inventors routinely use TOPFlash reporter assay for Wnt inhibitor screening. To mimic the constitutively active Wnt signaling found in CRC cells, Wnt signaling was activated by inhibiting GSK3 and stabilizing β-catenin. From screening in house small-molecule libraries, CBA-1 (FIG. 4) was identified that inhibited Wnt signaling in TOPFlash reporter assay. To validate the screening results, CBA-1 was tested in CRC cells.

In another assay the target is Jarid1B (KDM5B) (Homo sapiens, UniProt Q9UGL1). Description: Histone demethylase assay, purified enzyme panel. Type of assay: biochemical. The conditions noted are these: Reference inhibitor. An excerpt:
(§1) Histone Demethylase Assay
(§2) To further examine the effects of 58B1 on histone demethylase, we screened a panel of purified histone demethylases was screened.

For another assay, the target named is UTX (KDM6A) (Homo sapiens, UniProt O15550). Description: Histone demethylase assay, purified enzyme panel. Conditions: Reference inhibitor. The class given is biochemical.
UTX (KDM6A), sequence (O15550 whole entry): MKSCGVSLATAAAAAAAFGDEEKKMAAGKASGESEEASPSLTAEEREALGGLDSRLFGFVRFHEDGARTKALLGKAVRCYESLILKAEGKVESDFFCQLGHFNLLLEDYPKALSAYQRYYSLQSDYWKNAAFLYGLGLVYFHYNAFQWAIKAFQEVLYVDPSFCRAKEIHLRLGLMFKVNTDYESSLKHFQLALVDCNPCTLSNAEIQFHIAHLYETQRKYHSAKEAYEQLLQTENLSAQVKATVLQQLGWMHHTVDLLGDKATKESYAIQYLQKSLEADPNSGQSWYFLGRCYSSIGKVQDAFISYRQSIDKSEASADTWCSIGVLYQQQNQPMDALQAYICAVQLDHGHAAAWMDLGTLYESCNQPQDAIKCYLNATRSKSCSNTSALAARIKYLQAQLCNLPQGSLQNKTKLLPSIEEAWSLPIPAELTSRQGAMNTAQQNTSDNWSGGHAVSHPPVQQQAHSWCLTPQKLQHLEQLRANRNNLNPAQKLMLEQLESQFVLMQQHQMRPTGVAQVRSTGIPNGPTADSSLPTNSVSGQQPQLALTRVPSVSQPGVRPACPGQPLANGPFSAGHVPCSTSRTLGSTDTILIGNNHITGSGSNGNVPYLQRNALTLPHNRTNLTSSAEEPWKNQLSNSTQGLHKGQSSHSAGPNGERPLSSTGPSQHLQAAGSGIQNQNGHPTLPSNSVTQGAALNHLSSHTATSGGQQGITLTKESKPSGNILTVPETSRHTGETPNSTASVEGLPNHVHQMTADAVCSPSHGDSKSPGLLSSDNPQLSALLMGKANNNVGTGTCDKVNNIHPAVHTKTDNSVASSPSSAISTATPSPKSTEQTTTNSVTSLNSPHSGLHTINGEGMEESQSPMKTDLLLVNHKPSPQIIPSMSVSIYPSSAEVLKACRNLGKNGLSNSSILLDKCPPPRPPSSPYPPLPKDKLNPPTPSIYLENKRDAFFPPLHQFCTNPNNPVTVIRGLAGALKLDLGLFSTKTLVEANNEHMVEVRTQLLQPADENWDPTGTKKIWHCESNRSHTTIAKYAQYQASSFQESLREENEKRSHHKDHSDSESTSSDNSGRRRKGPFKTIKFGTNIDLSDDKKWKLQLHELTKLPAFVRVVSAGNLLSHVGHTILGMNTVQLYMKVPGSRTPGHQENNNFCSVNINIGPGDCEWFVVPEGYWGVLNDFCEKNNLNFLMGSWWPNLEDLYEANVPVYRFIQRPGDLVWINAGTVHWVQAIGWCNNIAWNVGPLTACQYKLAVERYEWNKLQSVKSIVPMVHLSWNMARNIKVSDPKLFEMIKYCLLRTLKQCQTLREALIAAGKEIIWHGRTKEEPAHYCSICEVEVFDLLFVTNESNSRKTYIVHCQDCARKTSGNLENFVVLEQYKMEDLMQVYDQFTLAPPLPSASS
Text: as §1, §2

The target in another assay is T1, JMJD1A (KDM3A) (Homo sapiens, UniProt Q9Y4C1).
T1 sequence (Q9Y4C1 1-1321): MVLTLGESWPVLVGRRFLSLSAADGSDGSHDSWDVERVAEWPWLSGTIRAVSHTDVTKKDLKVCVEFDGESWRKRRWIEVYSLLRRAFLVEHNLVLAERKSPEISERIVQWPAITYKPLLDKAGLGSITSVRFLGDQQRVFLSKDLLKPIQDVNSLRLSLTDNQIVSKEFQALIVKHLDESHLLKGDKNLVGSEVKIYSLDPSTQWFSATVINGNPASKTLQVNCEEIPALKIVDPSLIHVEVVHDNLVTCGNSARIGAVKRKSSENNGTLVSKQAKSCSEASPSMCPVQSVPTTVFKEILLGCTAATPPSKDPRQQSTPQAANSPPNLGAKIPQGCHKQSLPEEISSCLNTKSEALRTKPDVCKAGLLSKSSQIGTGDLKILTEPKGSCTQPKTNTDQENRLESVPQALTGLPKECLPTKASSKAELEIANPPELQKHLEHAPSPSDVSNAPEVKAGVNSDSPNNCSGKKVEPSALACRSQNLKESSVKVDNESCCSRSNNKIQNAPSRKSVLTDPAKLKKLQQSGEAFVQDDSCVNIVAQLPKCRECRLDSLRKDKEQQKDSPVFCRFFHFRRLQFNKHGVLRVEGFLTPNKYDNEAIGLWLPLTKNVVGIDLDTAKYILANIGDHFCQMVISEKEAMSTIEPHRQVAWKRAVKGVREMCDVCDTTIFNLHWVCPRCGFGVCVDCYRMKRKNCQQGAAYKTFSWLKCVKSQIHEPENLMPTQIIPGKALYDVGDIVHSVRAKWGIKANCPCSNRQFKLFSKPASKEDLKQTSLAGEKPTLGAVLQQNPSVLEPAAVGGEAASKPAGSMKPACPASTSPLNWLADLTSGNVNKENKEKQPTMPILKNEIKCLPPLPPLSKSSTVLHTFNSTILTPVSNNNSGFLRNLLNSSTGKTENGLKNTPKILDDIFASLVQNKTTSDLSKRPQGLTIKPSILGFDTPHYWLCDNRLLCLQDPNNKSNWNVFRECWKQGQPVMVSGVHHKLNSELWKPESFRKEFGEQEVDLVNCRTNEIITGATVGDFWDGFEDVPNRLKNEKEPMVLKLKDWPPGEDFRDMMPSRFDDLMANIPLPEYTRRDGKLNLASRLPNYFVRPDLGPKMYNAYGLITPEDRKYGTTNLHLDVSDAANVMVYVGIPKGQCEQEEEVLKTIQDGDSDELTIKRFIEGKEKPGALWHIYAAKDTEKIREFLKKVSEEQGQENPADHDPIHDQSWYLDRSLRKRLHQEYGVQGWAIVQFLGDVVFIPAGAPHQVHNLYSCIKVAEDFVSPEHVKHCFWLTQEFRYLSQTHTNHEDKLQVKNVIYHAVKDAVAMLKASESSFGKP
In words: Histone demethylase assay / KDM3A enzymatic activity in vitro. The class given is biochemical. The conditions noted are these: for enzymatic activity of KDM3A: FIG. 12C.
Text: as §1, §2
Identification of KDM3A as a target of CBA-1. KDM3A regulated H3K9Me^2 and underwent significant upregulation in CRC. To test if CBA-1 targeted KDM3A, a biotinylated analog CBA-B2 (FIG. 7A) was synthesized. […] Knocking-down KDM3A by shRNA inhibited cell proliferation (FIG. 7D) and Wnt target gene expression in LS174T CRC cells (FIG. 7E).
(§3) Repurposing drugs as CBA-1 analogs and KDM3 inhibitors. CBA-1 is a specific and potent KDM3A inhibitor. As backup candidates, two approved drugs were identified as CBA-1 analogs and KDM3A inhibitors. Based on the docking study (FIGS. 8A-B), the N and OH groups (red color in FIG. 12A) are critical in binding the Mn^2+ in KDM3A. […] A virtual screening was performed and several antibiotics that have similar structures were identified. Two of these antibiotics, clioquinol and nitroxoline (FIG. 12B), indeed inhibited the enzymatic activities of KDM3 (FIGS. 12C and D). These two drugs were tested in LS174T tumor xenograft model in SCID mice. […] Nitroxoline has been used in Europe for over 50 years as an antibiotic. It has anticancer effects, but the mechanism remains unclear.

In another assay the target is KDM3B (Homo sapiens, UniProt Q7LBC6). Description: KDM3B enzymatic activity. Type of assay: biochemical. Conditions: FIG. 12D.
KDM3B, sequence (Q7LBC6 whole entry, the tested form may be a part): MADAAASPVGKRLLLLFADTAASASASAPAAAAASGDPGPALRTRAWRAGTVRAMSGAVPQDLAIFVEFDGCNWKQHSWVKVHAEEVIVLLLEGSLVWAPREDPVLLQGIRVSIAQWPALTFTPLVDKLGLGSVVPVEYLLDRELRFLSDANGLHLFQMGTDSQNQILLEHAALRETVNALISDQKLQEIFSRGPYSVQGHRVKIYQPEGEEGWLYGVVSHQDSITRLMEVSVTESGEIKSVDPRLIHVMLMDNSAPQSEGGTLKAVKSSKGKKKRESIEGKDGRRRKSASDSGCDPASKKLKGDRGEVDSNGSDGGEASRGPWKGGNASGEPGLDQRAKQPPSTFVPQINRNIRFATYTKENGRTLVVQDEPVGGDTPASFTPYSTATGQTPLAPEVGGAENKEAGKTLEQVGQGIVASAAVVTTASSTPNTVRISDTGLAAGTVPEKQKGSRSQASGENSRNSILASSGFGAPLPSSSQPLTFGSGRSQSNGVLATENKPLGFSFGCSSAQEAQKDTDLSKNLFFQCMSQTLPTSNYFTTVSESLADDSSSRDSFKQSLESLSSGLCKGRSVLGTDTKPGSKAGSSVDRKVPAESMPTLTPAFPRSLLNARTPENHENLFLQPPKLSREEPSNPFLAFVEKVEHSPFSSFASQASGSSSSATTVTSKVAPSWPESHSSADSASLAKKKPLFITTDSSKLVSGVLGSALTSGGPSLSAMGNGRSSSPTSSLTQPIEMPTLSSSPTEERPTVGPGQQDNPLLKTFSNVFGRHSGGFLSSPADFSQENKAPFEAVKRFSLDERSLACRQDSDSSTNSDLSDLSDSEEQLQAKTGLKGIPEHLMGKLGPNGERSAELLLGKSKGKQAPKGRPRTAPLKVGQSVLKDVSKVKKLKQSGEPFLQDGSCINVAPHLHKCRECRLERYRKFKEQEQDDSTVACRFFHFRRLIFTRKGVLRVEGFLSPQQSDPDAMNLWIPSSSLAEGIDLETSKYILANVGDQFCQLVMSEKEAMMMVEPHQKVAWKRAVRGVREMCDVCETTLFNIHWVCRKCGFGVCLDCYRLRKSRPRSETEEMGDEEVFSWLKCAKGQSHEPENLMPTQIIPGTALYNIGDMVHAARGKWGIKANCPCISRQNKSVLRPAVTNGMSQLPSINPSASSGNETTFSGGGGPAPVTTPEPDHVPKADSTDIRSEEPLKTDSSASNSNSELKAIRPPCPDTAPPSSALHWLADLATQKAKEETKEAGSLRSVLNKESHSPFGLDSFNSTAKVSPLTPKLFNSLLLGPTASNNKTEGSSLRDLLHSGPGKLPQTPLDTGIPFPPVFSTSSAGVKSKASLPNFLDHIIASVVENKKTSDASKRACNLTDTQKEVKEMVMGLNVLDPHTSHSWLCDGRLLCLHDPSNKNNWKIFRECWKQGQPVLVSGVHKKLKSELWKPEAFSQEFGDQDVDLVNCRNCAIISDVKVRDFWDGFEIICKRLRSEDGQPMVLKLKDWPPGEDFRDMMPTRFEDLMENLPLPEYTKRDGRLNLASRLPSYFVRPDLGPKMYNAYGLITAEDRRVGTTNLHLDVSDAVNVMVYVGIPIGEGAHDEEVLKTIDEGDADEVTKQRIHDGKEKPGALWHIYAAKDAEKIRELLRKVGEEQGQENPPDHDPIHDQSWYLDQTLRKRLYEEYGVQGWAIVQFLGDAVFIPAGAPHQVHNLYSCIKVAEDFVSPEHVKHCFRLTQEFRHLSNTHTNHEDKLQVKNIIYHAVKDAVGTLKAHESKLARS
Text: Other KDM3 members as CBA-1 targets. Inhibition of KDM3A by CBA-1 increased H3K9Me^2 and inhibited Wnt signaling; however, other KDM3 members may also regulate H3K9 methylation. For example, both KDM3B and KDM3C (JMJD1C) regulated Wnt signaling. Given the high similarity of their structures (FIG. 10A), particularly the JmjC domains, it is believed that CBA-1 would inhibit KDM3B and KDM3C as well. […] CBA-1 coordinated with Mn^2+ at a longer distance in KDM3B (3.9 Å) than the distance in KDM3A (2.8 Å) (FIGS. 8B and 10B). This could be one of the reasons that CBA-1 inhibited KDM3A better than KDM3B.
as §3

A further assay concerns LS174T CRC xenografts. In words: LS174T tumor xenograft model in SCID mice. The class given is in vivo. Conditions: 50 mg/kg, p.o. Here is the method:
FIGS. 12A-E show images and graphs illustrating CBA-1 analogs from antibiotics. (A) Interaction of CBA-1 with Mn^2+. (B) Clioquinol (X=Cl; Y=I) and nitroxoline. (C-D) Inhibition of (C) KDM3A and (D) KDM3B enzymatic activities. (E) CBA-1 analogs (50 mg/kg, p.o.) inhibited LS174T CRC xenografts in SCID mice.
as §3

[1] abbreviates: Homo sapiens, HEK-293T, Table 1, HEK293T TOPFlash, 25 mM LiCl after 6 h.

Jarid1B (KDM5B), sequence (Q9UGL1 whole entry): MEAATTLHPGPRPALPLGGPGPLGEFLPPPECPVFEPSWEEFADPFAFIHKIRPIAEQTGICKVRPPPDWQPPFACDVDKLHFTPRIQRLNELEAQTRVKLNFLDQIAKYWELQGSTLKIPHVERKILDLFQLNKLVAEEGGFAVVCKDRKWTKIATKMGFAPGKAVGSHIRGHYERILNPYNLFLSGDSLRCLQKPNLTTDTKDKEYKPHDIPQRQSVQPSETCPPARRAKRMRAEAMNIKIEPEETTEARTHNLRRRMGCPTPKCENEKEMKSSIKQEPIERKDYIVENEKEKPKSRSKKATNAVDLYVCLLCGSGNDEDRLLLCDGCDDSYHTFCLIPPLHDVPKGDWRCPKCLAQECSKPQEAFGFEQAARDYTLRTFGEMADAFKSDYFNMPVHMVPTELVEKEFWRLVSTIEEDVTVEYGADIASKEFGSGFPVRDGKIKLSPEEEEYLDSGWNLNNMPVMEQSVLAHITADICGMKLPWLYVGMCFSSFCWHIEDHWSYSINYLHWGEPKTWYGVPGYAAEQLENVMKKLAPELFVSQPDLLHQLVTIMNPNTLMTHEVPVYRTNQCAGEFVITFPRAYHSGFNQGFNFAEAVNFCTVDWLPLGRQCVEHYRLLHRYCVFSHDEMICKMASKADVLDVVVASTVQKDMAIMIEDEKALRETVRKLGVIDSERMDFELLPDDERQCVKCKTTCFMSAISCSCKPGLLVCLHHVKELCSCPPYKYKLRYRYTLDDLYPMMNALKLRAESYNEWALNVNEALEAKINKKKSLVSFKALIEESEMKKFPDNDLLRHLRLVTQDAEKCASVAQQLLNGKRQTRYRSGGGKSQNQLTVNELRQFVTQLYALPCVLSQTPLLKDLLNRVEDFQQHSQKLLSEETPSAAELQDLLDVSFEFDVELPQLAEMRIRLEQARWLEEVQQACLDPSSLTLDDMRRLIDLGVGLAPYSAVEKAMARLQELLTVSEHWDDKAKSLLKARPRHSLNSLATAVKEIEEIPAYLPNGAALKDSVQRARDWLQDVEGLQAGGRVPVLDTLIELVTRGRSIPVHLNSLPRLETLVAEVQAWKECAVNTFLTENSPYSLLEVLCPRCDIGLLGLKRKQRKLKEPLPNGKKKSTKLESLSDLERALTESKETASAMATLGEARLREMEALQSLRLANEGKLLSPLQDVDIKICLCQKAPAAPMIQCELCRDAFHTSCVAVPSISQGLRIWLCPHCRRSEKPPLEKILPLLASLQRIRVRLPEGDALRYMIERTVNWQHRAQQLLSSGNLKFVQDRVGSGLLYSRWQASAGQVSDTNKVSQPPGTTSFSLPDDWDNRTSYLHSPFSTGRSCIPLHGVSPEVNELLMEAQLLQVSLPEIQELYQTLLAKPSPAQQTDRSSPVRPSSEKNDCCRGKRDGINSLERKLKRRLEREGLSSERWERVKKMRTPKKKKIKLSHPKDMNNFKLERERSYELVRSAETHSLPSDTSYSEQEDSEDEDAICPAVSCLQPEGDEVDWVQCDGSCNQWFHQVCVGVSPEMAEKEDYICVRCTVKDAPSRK

`CCCC(=O)NC(c1ccc(N2CCC(C(=O)OCC)CC2)cc1)c1cc(Cl)c2cccnc2c1O` (centres unmarked) [VMS-7-183]: the “Percent inhibition at 1 μM” value with Wnt signaling was 85.6%.

For `O=C(O)CCNc1cc(N2CCc3ccccc3CC2)nc(-c2ccccn2)n1` [GSK-J1, reference compound], the “% Inhibition” value on Jarid1B (KDM5B) and at UTX (KDM6A) was 100% each time.

In the assay on Wnt signaling (Homo sapiens, HEK-293T, Table 1, HEK293T TOPFlash, 2.5 µM of each compound, 25 mM LiCl after 6 h), `CC(=O)NC(c1ccc(Cl)cc1)c1cc([N+](=O)[O-])c2cccnc2c1O` (centres unmarked) [58H8] gave an inhibition at 2.5 µM of 80%.

`CCCC(=O)NC(c1ccco1)c1cc(Cl)c2cccnc2c1O` (centres unmarked) [48M1] displayed an inhibition with Wnt signaling (setting [1]) of 82%.

For `CC(=O)NC(c1ccc(N(C)C)cc1)c1cc(Cl)c2cccnc2c1O` (centres unmarked) [58D8], the inhibition with Wnt signaling (setting [1]) was 90%.

With `CCC(=O)NC(c1ccco1)c1cc(Cl)c2cccnc2c1O` (centres unmarked) [58B6], in the assay on Wnt signaling (setting [1]), the inhibition is 73%.

For the compound `CC(C)C(=O)NC(c1ccco1)c1ccc2cccnc2c1O` (centres unmarked) [SD70, reference compound], the “Percent inhibition at 1 μM” value with Wnt signaling (1 µM) amounted to 53.8%; in the assay with Wnt signaling (listed as VMS-7-175, 1 µM), 49.7%.

Compound `CCCC(=O)NC(c1ccc(N(C)C)cc1)c1cc(Cl)c2cccnc2c1O` (centres unmarked) [58F8] gave an inhibition in the assay on Wnt signaling (setting [1]) of 88%.

As for `O=[N+]([O-])c1ccc(O)c2ncccc12` [nitroxoline], the “enzymatic activity of KDM3A” value at JMJD1A (KDM3A) is reported as “inhibited”. Also, the “enzymatic activity of KDM3B” value at KDM3B is “inhibited”. The tumor growth result in the assay on LS174T CRC xenografts is listed as “inhibited tumor growth”.

Turning to `Clc1ccc(N/N=C(\c2ccccc2)c2ccccn2)nc1` [JIB-04], at JMJD1A (KDM3A) (Reference inhibitor), the “% Inhibition” value was found to be 100%.

Consider `Oc1c(I)cc(Cl)c2cccnc12` [clioquinol], for which the “enzymatic activity of KDM3A” value on JMJD1A (KDM3A) is reported as “inhibited”. Besides, the “enzymatic activity of KDM3B” value at KDM3B is “inhibited”. Also, the tumor growth entry with LS174T CRC xenografts is “inhibited tumor growth”.
